Values quoted from earlier work as cited in patent US20140023726A1, “POLYMORPHISMS PREDICTIVE OF PLATINUM-COORDINATING COMPLEX INDUCED OTOTOXICITY” (The University of British Columbia, priority 2006, published 2014).
Like-named read-outs stand apart in the source and are kept apart here.

Compound: N.N.[Cl][Pt][Cl] [cisplatin, trans-diaminedichloro-platinum(II)]
- Permanent hearing loss, frequency in patients (children less than 5, standard doses of cisplatin): 48%
- Permanent hearing loss, frequency in patients (patients receiving standard doses of cisplatin): 25%
